Measurements published in patent US7659297B2, “Tetrahydronaphthalene derivatives, process for their production and their use as anti-inflammatory agents” (Bayer Schering Pharma, AG, priority 2003, dated 2010).

How the values were obtained:
[1] = molecular target: T1, glucocorticoid receptor (GR) (Homo sapiens, UniProt P04150); test: Binding to the glucocorticoid receptor, recombinantly produced receptor, cytosol preparations of Sf9 cells, reference [3H]-dexamethasone; conditions: recombinant GR
T1 construct: made in house; host or cells: Sf9 cells infected with recombinant baculovirus (cytosol preparation)
T1 sequence (P04150 1-777): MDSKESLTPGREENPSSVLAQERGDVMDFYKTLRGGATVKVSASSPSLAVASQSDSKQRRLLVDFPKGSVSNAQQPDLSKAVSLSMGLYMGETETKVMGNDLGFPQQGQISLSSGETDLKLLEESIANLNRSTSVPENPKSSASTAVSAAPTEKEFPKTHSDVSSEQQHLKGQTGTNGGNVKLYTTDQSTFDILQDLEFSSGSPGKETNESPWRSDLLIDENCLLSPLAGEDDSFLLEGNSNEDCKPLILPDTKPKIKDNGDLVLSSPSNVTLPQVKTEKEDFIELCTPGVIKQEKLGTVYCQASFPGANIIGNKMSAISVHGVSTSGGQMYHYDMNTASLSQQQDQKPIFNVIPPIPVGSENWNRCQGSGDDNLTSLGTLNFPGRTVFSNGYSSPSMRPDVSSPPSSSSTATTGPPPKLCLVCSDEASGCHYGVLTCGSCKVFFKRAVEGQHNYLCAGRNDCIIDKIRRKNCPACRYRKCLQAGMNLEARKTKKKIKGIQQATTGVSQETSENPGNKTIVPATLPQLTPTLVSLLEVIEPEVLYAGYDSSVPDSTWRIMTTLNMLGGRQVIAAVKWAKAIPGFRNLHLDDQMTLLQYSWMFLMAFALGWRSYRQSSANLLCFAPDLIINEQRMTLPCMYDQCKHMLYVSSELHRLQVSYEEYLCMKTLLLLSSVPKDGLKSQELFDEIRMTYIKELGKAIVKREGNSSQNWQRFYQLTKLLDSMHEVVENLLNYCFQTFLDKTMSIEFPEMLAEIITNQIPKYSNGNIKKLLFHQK
Excerpt: (§1) The binding of substances to the glucocorticoid receptor (GR) and other steroid hormone-receptors (mineral corticoid receptors (MR), progesterone receptors (PR) and androgen receptors (AR)) is examined with the aid of recombinantly produced receptors. Cytosol preparations of Sf9 cells, which had been infected with recombinant baculoviruses that code for the GR, are used for the binding tests. In comparison to the reference substance [^3H]-dexamethasone, the substances show a high affinity to the GR.

[2] = molecular target: T2, progesterone receptors (PR) (Homo sapiens, UniProt P06401); test: Binding to other steroid hormone receptors with recombinantly produced receptors: progesterone receptor
T2 construct: made in house
T2 sequence (P06401 1-933): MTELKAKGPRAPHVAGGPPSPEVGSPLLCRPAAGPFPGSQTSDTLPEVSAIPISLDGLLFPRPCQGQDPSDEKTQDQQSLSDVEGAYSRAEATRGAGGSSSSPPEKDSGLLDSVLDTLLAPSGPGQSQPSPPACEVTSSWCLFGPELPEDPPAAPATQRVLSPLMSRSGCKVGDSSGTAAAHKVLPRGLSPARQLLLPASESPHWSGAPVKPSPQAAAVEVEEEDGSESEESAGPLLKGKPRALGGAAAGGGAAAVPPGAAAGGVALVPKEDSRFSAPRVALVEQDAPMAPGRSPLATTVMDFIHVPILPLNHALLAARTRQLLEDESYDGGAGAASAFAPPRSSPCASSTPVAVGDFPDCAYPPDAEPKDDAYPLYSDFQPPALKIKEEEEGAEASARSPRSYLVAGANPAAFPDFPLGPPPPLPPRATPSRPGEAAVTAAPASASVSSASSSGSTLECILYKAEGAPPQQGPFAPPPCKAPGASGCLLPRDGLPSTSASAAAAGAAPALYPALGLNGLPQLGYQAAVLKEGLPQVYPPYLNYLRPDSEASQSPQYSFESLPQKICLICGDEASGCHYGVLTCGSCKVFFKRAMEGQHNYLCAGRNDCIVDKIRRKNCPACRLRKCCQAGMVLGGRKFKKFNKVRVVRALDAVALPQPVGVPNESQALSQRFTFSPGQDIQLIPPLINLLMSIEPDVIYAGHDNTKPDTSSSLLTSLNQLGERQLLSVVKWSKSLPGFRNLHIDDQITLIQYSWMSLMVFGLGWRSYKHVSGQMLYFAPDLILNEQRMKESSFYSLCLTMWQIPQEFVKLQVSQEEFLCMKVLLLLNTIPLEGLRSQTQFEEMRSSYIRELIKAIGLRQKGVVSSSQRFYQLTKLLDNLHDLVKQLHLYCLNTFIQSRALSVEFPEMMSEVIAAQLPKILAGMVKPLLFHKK
Excerpt: as §1

[3] = system: secretion of the cytokine IL-8, triggered by lipopolysaccharide (LPS), in the human monocyte cell line THP-1; test: Inhibition of LPS-triggered secretion of the cytokine IL-8 in THP-1 cells (ELISA of supernatant); assay type: cell-based; conditions: LPS-triggered IL-8 secretion
Experimental: The concentration of the cytokines was determined in the supernatant by means of commercially available ELISA kits.

For `Cc1ncc2c(NC3c4cc(C)c(F)c(O)c4C(C)(C)CC3(O)C(F)(F)F)ccc(F)c2n1` (racemic) [Example 285, 6-Fluoro-1-[(8-fluoro-2-methylquinazolin-5-yl)amino]-4,4,7-trimethyl-2-(trifluoromethyl)-1,2,3,4-tetrahydronaphthalene-2,5-diol], the IC50 [1] was 86 nM, the IC50 [2] was over 1000 nM and the IC50 ([3]; Homo sapiens, read-out: inhibition IC50(IL8)) was 40 nM. For the same compound, the “eff (IL8 inhibition)” value [3] was 79%.
